In patent US9504729B2, “Antiangiogenic small molecules and methods of use” (The United States of America, as represented by the …, priority 2009, dated 2016):

Columns and labels:
KDR(VEGFR2) = KDR(VEGFR2) (Homo sapiens, UniProt P35968); test: SelectScreen kinase activity profiling, KDR(VEGFR2); assay type: biochemical; design: % Inhibition / Mean % Inhibition: concentration or dose not given beside the values; settings: KDR(VEGFR2); for Mean % Inhibition: mean of two independent trials
From the text: (§1) To characterize the RTK inhibitory activity of the antiangiogenic SMs described herein, 36 compounds were chosen and screened using Invitrogen's SelectScreen® kinase activity profiling service (described on-line at tools.invitrogen.com/content.cfm?pageid=10413#selection). VEGFR1 and FGFR2 RTK inhibitory activities were studied. […] Overall, a small minority of the SMs tested had any substantial kinase inhibitory activity. This observation supports a mechanism of antiangiogenic action other than RTK inhibition for most of the SMs described herein.

FGFR1 = FGFR1 (Homo sapiens, UniProt P11362); test: SelectScreen kinase activity profiling, FGFR1; assay type: biochemical; design: concentration or dose not given beside the values; settings: for Mean % Inhibition: mean of two independent trials
FGFR1, sequence (P11362 398-822 limits assumed): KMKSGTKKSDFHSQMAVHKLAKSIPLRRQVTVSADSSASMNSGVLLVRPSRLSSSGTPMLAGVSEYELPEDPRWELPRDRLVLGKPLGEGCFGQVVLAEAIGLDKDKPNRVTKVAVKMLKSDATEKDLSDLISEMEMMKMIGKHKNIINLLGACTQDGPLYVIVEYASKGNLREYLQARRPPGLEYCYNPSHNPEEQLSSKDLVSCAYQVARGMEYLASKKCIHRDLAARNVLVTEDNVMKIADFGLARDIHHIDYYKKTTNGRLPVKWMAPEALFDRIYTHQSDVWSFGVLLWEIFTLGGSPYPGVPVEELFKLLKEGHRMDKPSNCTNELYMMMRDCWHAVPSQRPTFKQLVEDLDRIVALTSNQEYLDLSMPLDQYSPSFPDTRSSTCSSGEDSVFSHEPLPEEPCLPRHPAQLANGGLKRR
From the text: as §1

[1] = first of two independent trials
[2] = second of two independent trials

KDR(VEGFR2), sequence (P35968 20-1356): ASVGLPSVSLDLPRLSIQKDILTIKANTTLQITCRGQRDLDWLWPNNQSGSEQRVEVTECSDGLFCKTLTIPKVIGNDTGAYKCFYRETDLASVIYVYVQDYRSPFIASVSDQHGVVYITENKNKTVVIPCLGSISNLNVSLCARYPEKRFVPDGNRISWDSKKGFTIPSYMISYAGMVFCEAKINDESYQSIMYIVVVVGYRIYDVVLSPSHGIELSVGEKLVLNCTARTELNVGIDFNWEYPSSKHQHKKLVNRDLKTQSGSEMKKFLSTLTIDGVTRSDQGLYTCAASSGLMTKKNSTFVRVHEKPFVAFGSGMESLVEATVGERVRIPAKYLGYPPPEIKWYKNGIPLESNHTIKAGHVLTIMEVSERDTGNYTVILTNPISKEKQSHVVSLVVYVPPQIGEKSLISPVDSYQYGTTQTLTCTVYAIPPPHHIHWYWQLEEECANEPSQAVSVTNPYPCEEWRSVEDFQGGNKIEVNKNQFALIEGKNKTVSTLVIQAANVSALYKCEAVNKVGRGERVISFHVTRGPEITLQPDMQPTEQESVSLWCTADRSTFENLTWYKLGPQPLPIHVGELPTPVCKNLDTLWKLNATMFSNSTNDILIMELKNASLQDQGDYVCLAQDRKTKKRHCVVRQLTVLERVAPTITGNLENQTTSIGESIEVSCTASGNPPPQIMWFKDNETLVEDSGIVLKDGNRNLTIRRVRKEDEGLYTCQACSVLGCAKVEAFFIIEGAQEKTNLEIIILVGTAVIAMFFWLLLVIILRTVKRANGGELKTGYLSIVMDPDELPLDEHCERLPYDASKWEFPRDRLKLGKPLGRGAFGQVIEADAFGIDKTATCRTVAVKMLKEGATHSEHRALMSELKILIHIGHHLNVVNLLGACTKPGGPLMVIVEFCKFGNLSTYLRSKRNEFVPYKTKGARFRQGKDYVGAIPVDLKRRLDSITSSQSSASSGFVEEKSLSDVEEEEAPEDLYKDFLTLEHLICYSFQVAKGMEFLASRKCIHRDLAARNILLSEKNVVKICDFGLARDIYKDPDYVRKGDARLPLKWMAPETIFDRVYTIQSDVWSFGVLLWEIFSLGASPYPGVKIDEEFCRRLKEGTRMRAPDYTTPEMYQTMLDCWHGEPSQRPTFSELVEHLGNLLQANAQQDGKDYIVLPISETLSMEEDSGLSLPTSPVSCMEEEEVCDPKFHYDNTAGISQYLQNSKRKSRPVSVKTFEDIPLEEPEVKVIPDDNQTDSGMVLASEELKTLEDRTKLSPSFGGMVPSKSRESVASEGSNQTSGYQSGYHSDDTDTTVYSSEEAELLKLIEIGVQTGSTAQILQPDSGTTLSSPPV

Row | SMILES | % Inhibition (KDR(VEGFR2); [1]) [%] | Mean % Inhibition (KDR(VEGFR2)) [%] | % Inhibition (KDR(VEGFR2); [2]) [%] | % Inhibition (FGFR1; [1]) [%] | Mean % Inhibition (FGFR1) [%] | % Inhibition (FGFR1; [2]) [%]
1 | O=C(O)C1CCCN1Cc1ccc2c(c1)OCO2 (stereo not drawn) [compound 108895] | 5 | 6 | 6 | 4 | 4 | 4
2 | CC1=C(Br)C(=O)C(C)=C(Br)C1=O.Cc1c(O)c(Br)c(C)c(O)c1Br [compound 112200] | 100 | 99 | 99 | 9 | 7 | 5
3 | O=C(O)c1c(Br)c(Br)c(Br)c(Br)c1C1c2ccc(O)cc2Oc2cc(O)ccc21 [compound 119889] | 103 | 103 | 104 | 96 | 96 | 95
4 | C1=Cc2ccccc2C1.C=C(C)c1ccccc1.[N-]=[N+]=Nc1ccccc1 [compound 122351] | 4 | 4 | 4 | −1 | 1 | 4
5 | O=[N+]([O-])c1ccc(S(=O)(=O)Cc2ccccc2)c([N+](=O)[O-])c1 [compound 122657] | 14 | 14 | 14 | −3 | −3 | −3
6 | CC(C)(C)c1cc(C#N)cc(Br)c1OP(=O)(Oc1c(Br)cc(C#N)cc1C(C)(C)C)c1ccccc1 [compound 203328] | 9 | 8 | 7 | 4 | 4 | 4
7 | S=C1SCN(C2CCCCCCCCCCC2)CN1C1CCCCCCCCCCC1 [compound 209910] | 9 | 10 | 10 | 2 | 4 | 5
8 | COc1ccc(CC2C(=O)NC(C)C(=O)N(C)C3C(=O)N(C)C(Cc4ccc(O)c(c4)Oc4ccc(cc4)C3O)C(=O)NC(C)C(=O)NC(C)C(=O)N2C)cc1 (stereo not drawn) [compound 259968] | 8 | 8 | 9 | 5 | 3 | 2
9 | CCCCC[CH2][Hg][S]c1nc(N)nc2[nH]cnc12 [compound 268879] | 40 | 39 | 38 | 3 | 1 | −2
10 | CC(=N[N-]C(=S)SCc1ccccc1)c1ccccn1.[Cl][Cu+] [compound 295642] | 19 | 18 | 17 | 2 | 6 | 9
11 | CSC(=[SH+])[N-]N=Cc1cccc(C)n1.CSC(=[SH+])[N-]N=Cc1cccc(C)n1.[Cu] [compound 310551] | 21 | 20 | 18 | −5 | −3 | −1
12 | CSC(=[SH+])[N-]N=C(c1ccccn1)c1ccccn1.[Cu][Br] [compound 321206] | 52 | 49 | 45 | 5 | 5 | 5
13 | Nc1cc[c]([Hg])cc1.Nc1nc2c(ncn2C2OC(CO)C(O)C2O)c(=[SH+])[nH]1 (stereo not drawn) [compound 321237] | 105 | 105 | 104 | 7 | 6 | 5
14 | O=C1c2ccccc2NC(c2cc(Cl)cc(Cl)c2O)N1CCc1ccccn1 (stereo not drawn) [compound 328087] | 9 | 9 | 9 | 3 | 4 | 5
15 | CC(C)(O)/C=C/C(=O)C(C)(O)C1C(O)CC2(C)C3CC=C4C(C=C(O)C(=O)C4(C)C)C3(C)C(=O)CC12C (stereo not drawn) [compound 521777] | 10 | 9 | 8 | 1 | 1 | 0
16 | CC1(C)CC(Nc2ccc(Nc3ccccc3)cc2)CC(C)(C)N1 [compound 632536] | 15 | 16 | 16 | 1 | 4 | 7
17 | COc1ccc(-c2csc3c2-n2cccc2C3=O)cc1 [compound 676693] | 1 | 5 | 8 | 4 | 3 | 3
18 | COC(=O)c1ccc(CCc2cc(O)ccc2O)cc1 [compound 681152] | 10 | 9 | 8 | 4 | 3 | 3
